The source of these data is EP3336173A1, “A STRAIN OF A[…] APPLICATIONS THEREOF” (Infinitec Activos S.L., priority 2016, dated 2018).

This assay relates to Prostaglandin E2 (PGE2). As to the kind of experiment: Anti-inflammatory activity: PGE2 quantification by ELISA in cells stimulated by IL-1α. It is filed as cell-based. As to conditions: Cycloheximide 100 µg/ml; IL-1α (5 pM). The method, then:
When cells are stimulated by an inflammatory agent PGE2 is synthesized de novo and released into the extracellular space. Thus quantification of PGE2 is used to asses the anti-inflammatory activity products.
In the present example the anti-inflammatory activity of the extract of example 2 was determined by quantification of PGE2 in cells stimulated by IL-1α using a kit for an enzyme-linked immunosorbent assay (ELISA). The kit used was Prostaglandin E2 EIA kit Item n° 514010 from Cayman Chemical.
Prostaglandin E2 assay is based on competition between the PGE2 to be determined and a fixed amount of added PGE2-acetylcholinesterase (AChE) conjugate (PGE2 tracer) for a limited amount of PGE2 monoclonal antibody. The amount of PGE2 tracer able to bind the PGE2 monoclonal antibody will be inversely proportional to the concentration of PGE2 in the well. Both the antibody-PGE2 complex and then antibody-PGE2 tracer complex bind to polyclonal goat anti-mouse IgG previously bound to the well. Then the plate is washed to remove any unbound reagent and Ellman's reagent is added to determine the amount of AChE bound to the well. […] The intensity of this color, determined by UV-Vis spectrophotometry, is proportional to the amount of PGE2 tracer bound […], which is inversely proportional to the amount of PGE2 present in the free well during incubation.

Turning to `C[C@@H]1C[C@@H]([C@H](O)CC2CC(=O)NC(=O)C2)C(=O)[C@@H](C)C1` [Cycloheximide], the “PGE2” value came to 31.85 pg/mL and the inhibition at 100 µg/mL was determined as 97.6%.

As a reminder, the inhibition is the relative decrease from the control value, in per cent.
